Reference: BindingDB's records for doi:10.7270/Q2N014XN (Srmlsc, 2007)
Counter-ions that a name gives are not always drawn.

What follows are molecules tested against T1, Diphosphomevalonate decarboxylase (Streptococcus pneumoniae serotype 2 (strain D39 / NCTC 7466), UniProt A0A0H2ZN59) (assay: S. pneumoniae DPM-DC inhibitor potency, dose response, biochemical, PK/LDH-coupled NADH fluorescence, hexokinase coupling counter-screen (AID 550)). Conditions: not given.
T1 sequence (A0A0H2ZN59 whole entry): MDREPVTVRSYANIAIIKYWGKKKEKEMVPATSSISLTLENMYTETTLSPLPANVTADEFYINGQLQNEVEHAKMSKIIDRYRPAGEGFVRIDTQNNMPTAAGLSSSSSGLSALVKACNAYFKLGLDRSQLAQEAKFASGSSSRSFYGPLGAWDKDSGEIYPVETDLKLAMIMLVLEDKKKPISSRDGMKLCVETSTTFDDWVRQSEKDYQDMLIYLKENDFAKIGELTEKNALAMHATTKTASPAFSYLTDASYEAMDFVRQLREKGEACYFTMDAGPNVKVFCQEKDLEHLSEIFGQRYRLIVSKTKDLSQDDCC

| SMILES | IC50 [µM] |
| --- | --- |
| COC(=O)c1ccccc1NC(=O)c1ccc2c(c1)C(=O)N(Cc1ccco1)C2=O [2-[[2-(2-furfuryl)-1,3-diketo-isoindoline-5-carbonyl]amino]benzoic acid methyl ester] | 53.9 |
| COC(=O)c1c(NC(=O)c2ccoc2C)sc2c1CCC2 [2-[(2-methyl-3-furoyl)amino]-5,6-dihydro-4H-cyclopenta[b]thiophene-3-carboxylic acid methyl ester] | 98.9 |
| Cc1cc(=O)[nH]c(NC(N)=Nc2cccc3ccccc23)n1 | > 10000 |
| Cc1cc(C)c(S(=O)(=O)NCc2cn3c(C)csc3n2)cc1C [2,4,5-trimethyl-N-[(3-methyl-6-imidazo[2,1-b]thiazolyl)methyl]benzenesulfonamide] | > 10000 |
| Cc1ccccc1Cc1c(C)nc2c(C(=O)N3CCN(Cc4ccc5c(c4)OCO5)CC3)cnn2c1C [3-{[4-(1,3-benzodioxol-5-ylmethyl)piperazin-1-yl]carbonyl}-5,7-dimethyl-6-(2-methylbenzyl)pyrazolo[1,5-a]pyrimidine] | > 10000 |
| COC(=O)Cn1c(=NC(=O)CSC(C)=O)sc2ccccc21 [2-[2-[2-(acetylthio)-1-oxoethyl]imino-1,3-benzothiazol-3-yl]acetic acid methyl ester] | > 10000 |
| COc1ccc2c(c1)C1(C)CC(C)(C)N2C(=O)N1c1ccccc1 (centres undefined) [MLS000027457] | 182 |
| CC(C)CC(=O)NCC(C)NC(=O)CC(C)C (centres undefined) [3-methyl-N-[2-(3-methylbutanoylamino)propyl]butanamide] | > 10000 |
| O=C(CN1c2cccc3cccc(c23)S1(=O)=O)N1CCOCC1 [2-[2-(4-morpholinyl)-2-oxoethyl]-2H-naphtho[1,8-cd]isothiazole 1,1-dioxide] | 21.9 |
| COc1cc(CNc2ccc(N3CCOCC3)c(C(=O)O)c2)ccc1OCC(N)=O [5-[[4-(2-amino-2-keto-ethoxy)-3-methoxy-benzyl]amino]-2-morpholino-benzoic acid] | 65.5 |
| O=C(c1noc2c1CCCC2)N1CCCCC1 [1-piperidinyl(4,5,6,7-tetrahydro-1,2-benzoxazol-3-yl)methanone] | > 10000 |
| Cc1cc(C(=O)CSc2nnnn2-c2ccc(Cl)cc2)c(C)n1CC1CCCO1 (centres undefined) [2-[1-(4-chlorophenyl)tetrazol-5-yl]sulfanyl-1-[2,5-dimethyl-1-(oxolan-2-ylmethyl)pyrrol-3-yl]ethanone] | > 10000 |
| CN(C)S(=O)(=O)c1cccc(C(=O)C2=C3SC=C(c4ccccc4)N3CC2)c1 [N,N-dimethyl-3-[(3-phenyl-5,6-dihydropyrrolo[2,1-b][1,3]thiazol-7-yl)carbonyl]benzenesulfonamide] | > 10000 |
| Cc1cnc(SCCc2ccncc2)nc1C [4,5-dimethyl-2-(2-pyridin-4-ylethylsulfanyl)pyrimidine;hydrochloride] | > 10000 |
| COCCNC(=O)C(C#N)c1nc2ccccc2nc1N1CCCCCC1 (centres undefined) [2-[3-(1-azepanyl)-2-quinoxalinyl]-2-cyano-N-(2-methoxyethyl)acetamide] | 190 |
| COc1ccc(C2C3=C(OC(C)=O)c4ccccc4C3=Nc3c2c(=O)n(C)c(=O)n3C)cc1 (centres undefined) [MLS000073247] | > 10000 |
| COc1ccc(-c2nn3c(-c4ccco4)nnc3s2)cc1OC [6-(3,4-dimethoxyphenyl)-3-(2-furanyl)-[1,2,4]triazolo[3,4-b][1,3,4]thiadiazole] | 235 |
| COc1ccc2nc3oc(C(=O)NCc4cccs4)cc3cc2c1 [6-methoxy-N-(2-thenyl)furo[2,3-b]quinoline-2-carboxamide] | 13.9 |
| COc1ccccc1N1CCN(C(=O)CSc2nnc(NC(=O)c3ccco3)s2)CC1 [Furan-2-carboxylic acid (5-{2-[4-(2-methoxy-phenyl)-piperazin-1-yl]-2-oxo-ethylsulfanyl}-[1,3,4]thiadiazol-2-yl)-amide] | 262 |
| CN(C)CCSc1nnc(-c2ccccc2)o1 | > 10000 |
| CCOC(=O)c1c(C)[nH]c(C(=O)COC(=O)c2ccccc2NC(=O)c2ccco2)c1C | 62.8 |
| CCc1ccc(CCC(=O)Nc2ccc(C)c(C)c2)o1 [MLS000064736] | > 10000 |
| Cc1cc(C)c2c(=O)n(CC(=O)N3CCC(Cc4ccccc4)CC3)sc2n1 [2-[2-(4-benzylpiperidin-1-yl)-2-oxoethyl]-4,6-dimethyl-[1,2]thiazolo[5,4-b]pyridin-3-one] | 221 |
| Cn1c(N2CCOCC2)nc(-c2ccccc2)c1-c1ccccc1 [4-(1-methyl-4,5-diphenyl-2-imidazolyl)morpholine] | 40.8 |
| CCCN(CC(=O)c1cc(C)n(C)c1C)S(=O)(=O)c1cccc(C(F)(F)F)c1 [MLS000055141] | > 10000 |
| COc1cc2c(C#N)c(N3CCN(c4ccccc4OC)CC3)nc(N)c2c(N)n1 [1,8-diamino-6-methoxy-3-(4-(2-methoxyphenyl)piperazin-1-yl)-2,7-naphthyridine-4-carbonitrile] | > 10000 |

| SMILES | IC50 [µM] |
| --- | --- |
| Cc1ccccc1-c1nc2cc(N)ccc2o1 [2-(2-methylphenyl)-1,3-benzoxazol-5-amine] | 10.1 |
| Nc1c(S(=O)(=O)c2cccs2)c2nc3ccccc3nc2n1Cc1ccc2c(c1)OCO2 [1-(1,3-benzodioxol-5-ylmethyl)-3-thiophen-2-ylsulfonyl-2-pyrrolo[3,2-b]quinoxalinamine] | 31.9 |
| CCOc1ccc(N2CC(C(=O)OC)CC2=O)cc1 (centres undefined) [1-(4-ethoxyphenyl)-5-oxo-3-pyrrolidinecarboxylic acid methyl ester] | > 10000 |
| O=C(CSc1nnnn1Cc1ccccc1)NCCc1ccccc1 [2-(1-Benzyl-1H-tetrazol-5-ylsulfanyl)-N-phenethyl-acetamide] | > 10000 |
| Cc1occc1C(=O)Nc1nnc(C(F)(F)F)s1 [2-methyl-N-[5-(trifluoromethyl)-1,3,4-thiadiazol-2-yl]-3-furamide] | > 10000 |
| CCOC(=O)c1cc2c(=O)n(C)c3ccccc3c2s1 [4-keto-5-methyl-thieno[3,2-c]quinoline-2-carboxylic acid ethyl ester] | > 10000 |
| Cc1nc2oc3c(NCc4ccccn4)ncnc3c2c2c1COC(C)(C)C2 [MLS000084529] | > 10000 |
| COc1ccc2[nH]c(=O)c(CN(CC3CCCO3)C(=O)Nc3ccccc3)cc2c1 (centres undefined) | 80.7 |
| O=C(Nc1ccc(N2CCCCC2)cc1)c1cccnc1 [MLS000074324] | > 10000 |
| COc1ccc(-c2cc(C(F)(F)F)nc(SCCC(=O)Nc3cc(C)on3)n2)cc1 [3-[4-(4-Methoxy-phenyl)-6-trifluoromethyl-pyrimidin-2-ylsulfanyl]-N-(5-methyl-isoxazol-3-yl)-propionamide] | > 10000 |
| COc1ccc(N2CCN(CCNS(=O)(=O)c3cccc4nsnc34)CC2)cc1 [MLS000090468] | > 10000 |
| c1ccc(-c2nc3nonc3c3nc4ccccc4n23)cc1 [5-Phenyl-2-oxa-1,3,4,5a,10-pentaaza-cyclopenta[a]fluorene] | > 10000 |
| CCOC(=O)c1[nH]c2ccc(OC)cc2c1NC(=O)CN1CCN(c2ccccn2)CC1 [5-methoxy-3-[[1-oxo-2-[4-(2-pyridinyl)-1-piperazinyl]ethyl]amino]-1H-indole-2-carboxylic acid ethyl ester] | > 10000 |
| COCCOC(=O)c1c(C)oc2ccc(NS(=O)(=O)c3ccc(F)cc3)cc12 [2-methoxyethyl 5-[(4-fluorophenyl)sulfonylamino]-2-methyl-1-benzofuran-3-carboxylate] | > 10000 |
| CCOc1ccc(N(CC(=O)Nc2ccc(F)c(F)c2)S(=O)(=O)c2c(C)noc2C)cc1 [MLS000117397] | > 10000 |
| COc1ccc(C2CC(c3cccc(C)c3)n3nc(N)nc3N2)cc1 (centres undefined) [5-(4-methoxyphenyl)-7-(3-methylphenyl)-1,5,6,7-tetrahydro-[1,2,4]triazolo[1,5-a]pyrimidin-2-amine] | > 10000 |
| CC(C)/N=c1/cc2n(-c3ccc(Cl)cc3)c3ccccc3nc-2cc1Nc1ccc(Cl)cc1 | 2.89 |
| Cc1c(C(=O)OCC(C)(C)CN(C)C)oc2ccccc12 [3-Methyl-benzofuran-2-carboxylic acid 3-dimethylamino-2,2-dimethyl-propyl ester] | > 10000 |
| Cc1ccc2oc(=O)c3cnn(CC(=O)NC4CCN(Cc5ccccc5)CC4)c3c2c1 [2-(8-methyl-4-oxidanylidene-chromeno[4,3-c]pyrazol-1-yl)-N-[1-(phenylmethyl)piperidin-4-yl]ethanamide] | > 10000 |
| COc1ccc(-c2nn3c(-c4ccccn4)nnc3s2)cc1OC [6-(3,4-dimethoxyphenyl)-3-(2-pyridinyl)-[1,2,4]triazolo[3,4-b][1,3,4]thiadiazole] | 89.8 |
| CCCc1nnc(NC(=O)CN2CCOCC2)s1 [2-(4-morpholinyl)-N-(5-propyl-1,3,4-thiadiazol-2-yl)acetamide;hydrochloride] | > 10000 |
| COc1ccc(C(c2nnnn2CC2CCCO2)N2CCN(c3ccccc3)CC2)cc1 (centres undefined) [1-[(4-methoxyphenyl)-[1-(2-oxolanylmethyl)-5-tetrazolyl]methyl]-4-phenylpiperazine] | > 10000 |
| COc1cc(NC(=O)c2ccc3c(c2)OCO3)c2ncccc2c1 [MLS000061736] | 52 |
| N#Cc1c(C(F)(F)F)cc(-c2ccco2)nc1SCc1ccncc1 [6-(2-furanyl)-2-(pyridin-4-ylmethylthio)-4-(trifluoromethyl)-3-pyridinecarbonitrile] | > 10000 |
| COc1ccc(-c2nc(C(N)=O)c3[nH]c(=O)n(-c4cccc(C)c4)c3n2)c(OC)c1 [SMR000016861] | 128 |
| CCOC(=O)c1sc(Nc2nc3c(OC)cccc3s2)nc1C [SMR000027213] | 2.35 |

Same assay, conditions: inactive by the depositor's call

| SMILES | IC50 [µM] |
| --- | --- |
| CCn1nc(-c2cccs2)nc2c(=O)n(C)c(=O)nc1-2 [1-ethyl-6-methyl-3-thiophen-2-yl-pyrimido[5,4-e][1,2,4]triazine-5,7-dione] | 4.73 |
| CCC(=O)Oc1ccc2c(C)cc(=O)oc2c1C [(4,8-dimethyl-2-oxidanylidene-chromen-7-yl) propanoate] | 29.9 |
